Data published in patent publication US8192962B2, “Processes for detecting toxic substances” (Daikin Industries, Ltd., priority 2001, dated 2012).

Tested on: Unknown protein yeast genes
Assay: DNA chip mRNA expression in yeast, unknown protein yeast genes (Table 1)
Format: cell-based, Saccharomyces cerevisiae S288C
Summary of the method: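 First, S288C yeast grown in YPD at 25° C. are dosed in log phase with one toxicant (growth-inhibiting, not lethal) for 2 h. Next, total RNA is extracted and poly(A) mRNA isolated and reverse-transcribed with Cy3/Cy5-dUTP. Finally, whole-genome chip fluorescence is read relative to unexposed cells.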

For CN(C)C(=S)SSC(=S)N(C)C [(10), Tetramethylthiuram disulfide], the “The level of expressed mRNA in the presence of chemical substance/The level of expressed mRNA in the absence of chemical substance” value (yeast gene YAL053W, incubated two hours with chemical substance) was 0.9, the “The level of expressed mRNA in the presence of chemical substance/The level of expressed mRNA in the absence of chemical substance” value (yeast gene YBL048W) was 4.4 and the “The level of expressed mRNA in the presence of chemical substance/The level of expressed mRNA in the absence of chemical substance” value (yeast gene YBL107C) was 3.1. The “The level of expressed mRNA in the presence of chemical substance/The level of expressed mRNA in the absence of chemical substance” value (yeast gene YBR100W) was 3.0, the “The level of expressed mRNA in the presence of chemical substance/The level of expressed mRNA in the absence of chemical substance” value (yeast gene YDL072C, incubated two hours with chemical substance) was 1.5 and the “The level of expressed mRNA in the presence of chemical substance/The level of expressed mRNA in the absence of chemical substance” value (yeast gene YDL204W, incubated two hours with chemical substance) was 2.0. The “The level of expressed mRNA in the presence of chemical substance/The level of expressed mRNA in the absence of chemical substance” value (yeast gene YDL222C, incubated two hours with chemical substance) was 1.0, the “The level of expressed mRNA in the presence of chemical substance/The level of expressed mRNA in the absence of chemical substance” value (yeast gene YDR330W, incubated two hours with chemical substance) was 2.6 and the “The level of expressed mRNA in the presence of chemical substance/The level of expressed mRNA in the absence of chemical substance” value (yeast gene YDR391C, incubated two hours with chemical substance) was 2.7. For the same compound, the “The level of expressed mRNA in the presence of chemical substance/The level of expressed mRNA in the absence of chemical substance” value (yeast gene YDR411C, incubated two hours with chemical substance) was 1.0, the “The level of expressed mRNA in the presence of chemical substance/The level of expressed mRNA in the absence of chemical substance” value (yeast gene YDR511W, incubated two hours with chemical substance) was 2.2 and the “The level of expressed mRNA in the presence of chemical substance/The level of expressed mRNA in the absence of chemical substance” value (yeast gene YDR545W, incubated two hours with chemical substance) was 0.7. For the same compound, the “The level of expressed mRNA in the presence of chemical substance/The level of expressed mRNA in the absence of chemical substance” value (yeast gene YEL001C, incubated two hours with chemical substance) was 1.2, the “The level of expressed mRNA in the presence of chemical substance/The level of expressed mRNA in the absence of chemical substance” value (yeast gene YER004W, incubated two hours with chemical substance) was 2.9 and the “The level of expressed mRNA in the presence of chemical substance/The level of expressed mRNA in the absence of chemical substance” value (yeast gene YER035W, incubated two hours with chemical substance) was 1.4. For the same compound, the “The level of expressed mRNA in the presence of chemical substance/The level of expressed mRNA in the absence of chemical substance” value (yeast gene YER079W, incubated two hours with chemical substance) was 3.4, the “The level of expressed mRNA in the presence of chemical substance/The level of expressed mRNA in the absence of chemical substance” value (yeast gene YER106W, incubated two hours with chemical substance) was 1.8 and the “The level of expressed mRNA in the presence of chemical substance/The level of expressed mRNA in the absence of chemical substance” value (yeast gene YER158C, incubated two hours with chemical substance) was 1.6. The “The level of expressed mRNA in the presence of chemical substance/The level of expressed mRNA in the absence of chemical substance” value (yeast gene YER163C, incubated two hours with chemical substance) was 3.4, the “The level of expressed mRNA in the presence of chemical substance/The level of expressed mRNA in the absence of chemical substance” value (yeast gene YER175C, incubated two hours with chemical substance) was 11.5 and the “The level of expressed mRNA in the presence of chemical substance/The level of expressed mRNA in the absence of chemical substance” value (yeast gene YFL006W, incubated two hours with chemical substance) was 1.7. For the same compound, the “The level of expressed mRNA in the presence of chemical substance/The level of expressed mRNA in the absence of chemical substance” value (yeast gene YFL010C, incubated two hours with chemical substance) was 1.4, the “The level of expressed mRNA in the presence of chemical substance/The level of expressed mRNA in the absence of chemical substance” value (yeast gene YFL024C) was 0.5 and the “The level of expressed mRNA in the presence of chemical substance/The level of expressed mRNA in the absence of chemical substance” value (yeast gene YFL032W, incubated two hours with chemical substance) was 0.6. The “The level of expressed mRNA in the presence of chemical substance/The level of expressed mRNA in the absence of chemical substance” value (yeast gene YFR020W) was 3.5, the “The level of expressed mRNA in the presence of chemical substance/The level of expressed mRNA in the absence of chemical substance” value (yeast gene YGL037C, incubated two hours with chemical substance) was 1.6 and the “The level of expressed mRNA in the presence of chemical substance/The level of expressed mRNA in the absence of chemical substance” value (yeast gene YGL047W, incubated two hours with chemical substance) was 5.7. The “The level of expressed mRNA in the presence of chemical substance/The level of expressed mRNA in the absence of chemical substance” value (yeast gene YGL053W, incubated two hours with chemical substance) was 2.4, the “The level of expressed mRNA in the presence of chemical substance/The level of expressed mRNA in the absence of chemical substance” value (yeast gene YGL121C) was 15.0 and the “The level of expressed mRNA in the presence of chemical substance/The level of expressed mRNA in the absence of chemical substance” value (yeast gene YGL199C, incubated two hours with chemical substance) was 0.1. The “The level of expressed mRNA in the presence of chemical substance/The level of expressed mRNA in the absence of chemical substance” value (yeast gene YGR101W, incubated two hours with chemical substance) was 1.4, the “The level of expressed mRNA in the presence of chemical substance/The level of expressed mRNA in the absence of chemical substance” value (yeast gene YGR110W) was 4.8 and the “The level of expressed mRNA in the presence of chemical substance/The level of expressed mRNA in the absence of chemical substance” value (yeast gene YGR130C, incubated two hours with chemical substance) was 1.5. The “The level of expressed mRNA in the presence of chemical substance/The level of expressed mRNA in the absence of chemical substance” value (yeast gene YGR154C, incubated two hours with chemical substance) was 9.1, the “The level of expressed mRNA in the presence of chemical substance/The level of expressed mRNA in the absence of chemical substance” value (yeast gene YGR221C, incubated two hours with chemical substance) was 0.7 and the “The level of expressed mRNA in the presence of chemical substance/The level of expressed mRNA in the absence of chemical substance” value (yeast gene YGR243W) was 3.0. For the same compound, the “The level of expressed mRNA in the presence of chemical substance/The level of expressed mRNA in the absence of chemical substance” value (yeast gene YHR029C) was 8.6, the “The level of expressed mRNA in the presence of chemical substance/The level of expressed mRNA in the absence of chemical substance” value (yeast gene YHR105W) was 3.4 and the “The level of expressed mRNA in the presence of chemical substance/The level of expressed mRNA in the absence of chemical substance” value (yeast gene YHR138C, incubated two hours with chemical substance) was 4.6. For the same compound, the “The level of expressed mRNA in the presence of chemical substance/The level of expressed mRNA in the absence of chemical substance” value (yeast gene YHR199C, incubated two hours with chemical substance) was 6.0, the “The level of expressed mRNA in the presence of chemical substance/The level of expressed mRNA in the absence of chemical substance” value (yeast gene YHR209W) was 6.4 and the “The level of expressed mRNA in the presence of chemical substance/The level of expressed mRNA in the absence of chemical substance” value (yeast gene YIL023C, incubated two hours with chemical substance) was 1.6. For the same compound, the “The level of expressed mRNA in the presence of chemical substance/The level of expressed mRNA in the absence of chemical substance” value (yeast gene YIL024C, incubated two hours with chemical substance) was 1.8, the “The level of expressed mRNA in the presence of chemical substance/The level of expressed mRNA in the absence of chemical substance” value (yeast gene YIL041W, incubated two hours with chemical substance) was 1.4 and the “The level of expressed mRNA in the presence of chemical substance/The level of expressed mRNA in the absence of chemical substance” value (yeast gene YIL087C, incubated two hours with chemical substance) was 1.8. For the same compound, the “The level of expressed mRNA in the presence of chemical substance/The level of expressed mRNA in the absence of chemical substance” value (yeast gene YJL057C, incubated two hours with chemical substance) was 6.1, the “The level of expressed mRNA in the presence of chemical substance/The level of expressed mRNA in the absence of chemical substance” value (yeast gene YJL066C, incubated two hours with chemical substance) was 2.1 and the “The level of expressed mRNA in the presence of chemical substance/The level of expressed mRNA in the absence of chemical substance” value (yeast gene YJL082W, incubated two hours with chemical substance) was 2.9. For the same compound, the “The level of expressed mRNA in the presence of chemical substance/The level of expressed mRNA in the absence of chemical substance” value (yeast gene YJL151C, incubated two hours with chemical substance) was 1.6, the “The level of expressed mRNA in the presence of chemical substance/The level of expressed mRNA in the absence of chemical substance” value (yeast gene YJL152W, incubated two hours with chemical substance) was 1.0 and the “The level of expressed mRNA in the presence of chemical substance/The level of expressed mRNA in the absence of chemical substance” value (yeast gene YJL161W, incubated two hours with chemical substance) was 2.1. The “The level of expressed mRNA in the presence of chemical substance/The level of expressed mRNA in the absence of chemical substance” value (yeast gene YJL171C, incubated two hours with chemical substance) was 1.7, the “The level of expressed mRNA in the presence of chemical substance/The level of expressed mRNA in the absence of chemical substance” value (yeast gene YJR008W, incubated two hours with chemical substance) was 1.9 and the “The level of expressed mRNA in the presence of chemical substance/The level of expressed mRNA in the absence of chemical substance” value (yeast gene YJR054W, incubated two hours with chemical substance) was 0.6. For the same compound, the “The level of expressed mRNA in the presence of chemical substance/The level of expressed mRNA in the absence of chemical substance” value (yeast gene YKL071W) was 109.2.
